According to paper PMC7294773 (Neuropharmacology, 2017):
Entries after “also recorded” stand apart in the source; their conditions may differ. Like-named read-outs stand apart in the source and are kept apart here.

Columns and labels:
DAT [1] = target: T1, DAT (Rattus norvegicus, UniProt P23977); assay: Release of [3H]MPP+ from rat striatal synaptosomes; format: biochemical; settings: for DAT / NET ratio (release): 1/(DAT EC50) divided by 1/(NET EC50); for DAT / NET ratio (release) / DAT / SERT ratio (release): rat brain synaptosomes; for DAT / SERT ratio (release): 1/(DAT EC50) divided by 1/(SERT EC50)
T1 sequence (P23977 whole entry): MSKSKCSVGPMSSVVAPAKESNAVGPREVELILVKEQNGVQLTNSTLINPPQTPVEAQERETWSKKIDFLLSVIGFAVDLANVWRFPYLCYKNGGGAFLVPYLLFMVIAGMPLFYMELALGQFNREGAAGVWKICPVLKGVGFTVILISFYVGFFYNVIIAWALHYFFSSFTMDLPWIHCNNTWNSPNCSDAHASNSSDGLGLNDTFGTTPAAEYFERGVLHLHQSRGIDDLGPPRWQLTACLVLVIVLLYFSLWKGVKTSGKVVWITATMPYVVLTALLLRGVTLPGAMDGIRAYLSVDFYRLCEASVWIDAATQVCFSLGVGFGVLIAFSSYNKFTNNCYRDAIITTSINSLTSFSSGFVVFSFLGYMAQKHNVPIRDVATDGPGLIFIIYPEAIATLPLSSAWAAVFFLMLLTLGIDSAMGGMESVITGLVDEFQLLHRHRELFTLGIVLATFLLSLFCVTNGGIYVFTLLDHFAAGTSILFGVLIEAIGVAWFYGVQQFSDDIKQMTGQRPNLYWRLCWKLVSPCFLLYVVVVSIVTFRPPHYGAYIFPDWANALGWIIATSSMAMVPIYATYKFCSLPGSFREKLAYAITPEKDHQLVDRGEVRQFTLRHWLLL

SERT = SERT (Rattus norvegicus, UniProt P31652); assay: Release of [3H]5-HT from rat brain synaptosomes; format: biochemical
Sequence of SERT (P31652 whole entry): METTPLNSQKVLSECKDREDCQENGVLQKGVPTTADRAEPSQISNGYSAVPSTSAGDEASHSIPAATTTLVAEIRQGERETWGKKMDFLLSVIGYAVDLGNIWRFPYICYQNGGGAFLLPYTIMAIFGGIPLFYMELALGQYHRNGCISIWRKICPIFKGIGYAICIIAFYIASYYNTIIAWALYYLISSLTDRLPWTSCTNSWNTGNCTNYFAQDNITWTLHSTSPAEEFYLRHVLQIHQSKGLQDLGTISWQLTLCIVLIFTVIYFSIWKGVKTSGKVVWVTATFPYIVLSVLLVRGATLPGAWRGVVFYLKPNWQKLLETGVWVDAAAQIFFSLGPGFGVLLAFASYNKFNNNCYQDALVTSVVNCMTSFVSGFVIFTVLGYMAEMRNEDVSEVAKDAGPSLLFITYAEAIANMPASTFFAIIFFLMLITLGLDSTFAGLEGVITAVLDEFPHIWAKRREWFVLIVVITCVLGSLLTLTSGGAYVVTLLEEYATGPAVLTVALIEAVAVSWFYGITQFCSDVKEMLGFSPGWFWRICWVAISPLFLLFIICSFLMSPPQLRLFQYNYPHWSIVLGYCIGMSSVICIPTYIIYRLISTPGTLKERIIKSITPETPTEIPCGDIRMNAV

hSERT [2] = target: T2, hSERT (Homo sapiens, UniProt P31645); settings: for Ionic current mediated via hSERT: cells clamped to −60 mV, representative traces; for Kind of current evoked in SERT-expressing cells: whole-cell patch clamp, in words
T2 sequence (P31645 whole entry): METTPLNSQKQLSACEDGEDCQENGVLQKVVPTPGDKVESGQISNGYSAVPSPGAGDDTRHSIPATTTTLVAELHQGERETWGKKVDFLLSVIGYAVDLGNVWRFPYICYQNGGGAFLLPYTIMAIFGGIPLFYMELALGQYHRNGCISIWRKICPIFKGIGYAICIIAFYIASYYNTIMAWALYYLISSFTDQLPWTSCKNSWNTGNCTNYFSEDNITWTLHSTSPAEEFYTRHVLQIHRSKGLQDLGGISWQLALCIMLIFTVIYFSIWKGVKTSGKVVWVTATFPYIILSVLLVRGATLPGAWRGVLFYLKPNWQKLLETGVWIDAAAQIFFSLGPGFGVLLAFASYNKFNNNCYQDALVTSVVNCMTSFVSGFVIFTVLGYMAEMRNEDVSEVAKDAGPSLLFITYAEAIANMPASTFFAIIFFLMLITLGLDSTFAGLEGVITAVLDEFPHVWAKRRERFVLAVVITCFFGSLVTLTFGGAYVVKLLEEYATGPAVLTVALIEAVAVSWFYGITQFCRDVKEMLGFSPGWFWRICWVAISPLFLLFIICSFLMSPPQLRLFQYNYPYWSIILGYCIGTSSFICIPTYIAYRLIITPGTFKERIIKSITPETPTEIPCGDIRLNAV

human SERT (hSERT) = human SERT (hSERT) (Homo sapiens, UniProt P31645); assay: Radiotracer uptake inhibition in HEK293 cells expressing hSERT; format: cell-based; settings: for IC50: IC50 SERT, inhibition of transporter-mediated uptake, hSERT, [3H]5HT 100 nM, mean ± SEM, n=3
Sequence of human SERT (hSERT) (P31645 whole entry): as above

human DAT (hDAT) = human DAT (hDAT) (Homo sapiens, UniProt Q01959); assay: Radiotracer uptake inhibition in HEK293 cells expressing hDAT; format: cell-based; settings: for DAT / NET ratio (uptake inhibition): 1/(DAT IC50) divided by 1/(NET IC50); for DAT / SERT ratio (uptake inhibition): 1/(DAT IC50) divided by 1/(SERT IC50); for IC50: IC50 DAT, inhibition of transporter-mediated uptake, hDAT, [3H]MPP+ 20 nM, mean ± SEM, n=3
Sequence of human DAT (hDAT) (Q01959 whole entry): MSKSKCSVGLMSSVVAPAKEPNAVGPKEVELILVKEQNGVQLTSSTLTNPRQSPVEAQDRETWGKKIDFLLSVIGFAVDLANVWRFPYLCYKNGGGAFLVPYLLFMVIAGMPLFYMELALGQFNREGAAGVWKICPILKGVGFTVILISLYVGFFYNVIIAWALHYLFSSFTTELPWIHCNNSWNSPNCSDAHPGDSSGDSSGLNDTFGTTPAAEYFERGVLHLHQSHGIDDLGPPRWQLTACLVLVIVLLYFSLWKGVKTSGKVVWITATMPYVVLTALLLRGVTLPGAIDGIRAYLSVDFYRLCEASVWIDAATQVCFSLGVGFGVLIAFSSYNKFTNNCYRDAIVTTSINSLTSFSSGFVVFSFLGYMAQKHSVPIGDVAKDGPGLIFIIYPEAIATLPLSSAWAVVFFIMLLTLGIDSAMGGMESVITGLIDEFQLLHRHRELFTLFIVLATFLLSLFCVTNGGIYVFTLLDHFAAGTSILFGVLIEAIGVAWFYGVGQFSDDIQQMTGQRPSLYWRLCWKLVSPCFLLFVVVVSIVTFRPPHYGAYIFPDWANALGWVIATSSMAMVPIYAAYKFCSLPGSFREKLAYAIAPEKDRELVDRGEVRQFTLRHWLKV

human NET (hNET) = human NET (hNET) (Homo sapiens, UniProt P23975); assay: Radiotracer uptake inhibition in HEK293 cells expressing hNET; format: cell-based; settings: for NET / SERT ratio (uptake inhibition): 1/(NET IC50) divided by 1/(SERT IC50); for IC50: IC50 NET, inhibition of transporter-mediated uptake, hNET, [3H]MPP+ 20 nM, mean ± SEM, n=3
Sequence of human NET (hNET) (P23975 whole entry): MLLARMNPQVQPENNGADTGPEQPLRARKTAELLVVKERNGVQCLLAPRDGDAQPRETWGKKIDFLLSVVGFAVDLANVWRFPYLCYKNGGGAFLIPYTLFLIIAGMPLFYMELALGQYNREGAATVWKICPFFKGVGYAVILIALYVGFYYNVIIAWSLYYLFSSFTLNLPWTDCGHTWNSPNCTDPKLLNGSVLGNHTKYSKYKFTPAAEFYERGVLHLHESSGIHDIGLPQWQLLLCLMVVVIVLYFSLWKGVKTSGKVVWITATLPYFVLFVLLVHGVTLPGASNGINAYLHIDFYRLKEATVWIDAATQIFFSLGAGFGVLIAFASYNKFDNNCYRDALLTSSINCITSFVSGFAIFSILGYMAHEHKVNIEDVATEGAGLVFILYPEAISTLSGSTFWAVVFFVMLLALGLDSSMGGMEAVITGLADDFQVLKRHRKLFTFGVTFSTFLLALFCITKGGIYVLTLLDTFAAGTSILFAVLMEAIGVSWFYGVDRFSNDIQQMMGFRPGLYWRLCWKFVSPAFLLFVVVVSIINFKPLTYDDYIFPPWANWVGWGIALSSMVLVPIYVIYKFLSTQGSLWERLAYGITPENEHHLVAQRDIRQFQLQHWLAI

NET = assay: Release of [3H]MPP+ from rat brain synaptosomes; format: biochemical; settings: 1/(NET EC50) divided by 1/(SERT EC50)
hNET = hNET (Homo sapiens, UniProt P23975); format: cell-based; settings: 5 µM, without monensin, HEK293 cells
Sequence of hNET (P23975 whole entry): as above

hSERT [3] = target: T2, hSERT; format: cell-based; settings: 5 µM, without monensin, HEK293 cells
hDAT [4] = target: T3, hDAT (Homo sapiens, UniProt Q01959); format: cell-based; settings: 5 µM, without monensin, HEK293 cells
T3 sequence (Q01959 whole entry): as the sequence (Q01959 whole entry) above

[5] = system: vesicular monoamine transporter 2 (VMAT2); settings: at concentrations up to 100 μM; ref Partilla et al., 2006; cited from earlier work
[6] = system: extracellular dopamine and serotonin in rat nucleus accumbens; settings: systemic administration, ref Rothman et al., 2002; cited from earlier work
DAT [7] = target: T1, DAT; settings: in vitro findings; ref Rothman et al., 2002; cited from earlier work
hDAT [8] = target: T3, hDAT; settings: ref Solis et al., 2016; cited from earlier work

Structure (SMILES) | EC50 (DAT [1]) | DAT / NET ratio (release) (DAT [1]) | DAT / SERT ratio (release) (DAT [1]) | EC50 (SERT) | Ionic current mediated via hSERT (hSERT [2]; 10 µM) | Kind of current evoked in SERT-expressing cells (hSERT [2]) | IC50 (human SERT (hSERT)) | DAT / NET ratio (uptake inhibition) (human DAT (hDAT)) | DAT / SERT ratio (uptake inhibition) (human DAT (hDAT)) | IC50 (human DAT (hDAT)) | NET / SERT ratio (uptake inhibition) (human NET (hNET)) | IC50 (human NET (hNET)) | NET / SERT ratio (release) (NET) | Effect on efflux of [3H]MPP+ via hNET versus basal (hNET) | Ionic current mediated via hSERT (hSERT [2]; 30 µM) | Effect on efflux of [3H]5-HT via hSERT versus basal (hSERT [3]) | Effect on efflux of [3H]MPP+ via hDAT versus basal (hDAT [4]) | also measured
CC1NCCOC1c1cccc(F)c1 (centres unmarked) [3-FPM, 2-(3-fluorophenyl)-3-methylmorpholine] | 60 ± 4 nM | 0.28 | 21 | 1270 ± 207 nM | −3.8 pA | inwardly directed ionic currents | 112000 ± 13100 nM | 1.31 | 96.4 | 1160 ± 290 nM | 73.7 | 1510 ± 170 nM | 75 |  |  |  |  | 
CC1NCCOC1c1ccccc1F (centres unmarked) [2-FPM, 2-(2-Fluorophenyl)-3-methylmorpholine] | 112 ± 10 nM | 0.25 | 43 | 4810 ± 1260 nM |  | inwardly directed ionic currents | 454000 ± 15400 nM | 0.97 | 340.1 | 1330 ± 90 nM | 351.4 | 1290 ± 30 nM | 172 | increased tritium outflow above basal levels | −4 pA | no detectable effect | increased tritium outflow above basal levels | Effect on SERT mediated uptake (human SERT (hSERT); at concentrations below 30 µM): no obvious effect
CC1NCCOC1c1ccc(F)cc1 (centres unmarked) [4-FPM, 2-(4-fluorophenyl)-3-methylmorpholine] | 191 ± 17 nM | 0.30 | 10 | 1890 ± 424 nM | −2.5 pA | inwardly directed ionic currents | 88100 ± 1830 nM | 0.96 | 41.2 | 2140 ± 390 nM | 42.9 | 2050 ± 280 nM | 33 | increased tritium outflow above basal levels |  | significantly enhanced basal release; also recorded: moderate release | increased tritium outflow above basal levels | 
CC1NCCOC1c1ccccc1 (centres unmarked) [phenmetrazine] |  |  |  |  |  |  |  |  |  |  |  |  |  |  |  |  |  | Interaction with VMAT2 as an inhibitor or substrate [5]: does not interact; Extracellular dopamine and serotonin in nucleus accumbens [6]: dose-related elevations; DAT-selectivity compared to SERT (DAT [7]): at least 10 fold; Current induced in cells expressing hDAT (hDAT [8]): inwardly-directed sodium current
NCCc1c[nH]c2ccc(O)cc12 [5-HT, 5-hydroxytryptamine, reference compound] |  |  |  |  |  | inwardly directed ionic currents |  |  |  |  |  |  |  |  | −7 pA |  |  | 
COC(=O)[C@H]1[C@@H](OC(=O)c2ccccc2)C[C@@H]2CC[C@H]1N2C [cocaine, reference compound] |  |  |  |  | outwardly directed current |  |  |  |  |  |  |  |  |  |  |  |  | 
